# Test results from patent US20220338504A1 (priority 2017, published 2022).
# Like-named read-outs stand apart in the source and are kept apart here. Marks after values point to notes of the source that are not given here.
# Legend:
# C. perfringens [1] = type: in vivo, broilers (male Ross×Ross chicks); settings: Virginiamycin 20 g/ton, formulated yeast 0.5 lb/ton, ground pepper 0.3 lb/ton, combination 0.3 + 0.5 lb/ton
# C. perfringens [2] = type: in vivo, broilers (male Ross×Ross chicks); settings: 20 g/ton
# [3] = system: E. maxima and C. perfringens; type: in vivo, broilers (male Cobb×Cobb chicks); settings: challenged, BMD 50.0 g/ton, encapsulated ground pepper 300 g/ton
# [4] = system: E. maxima and C. perfringens; type: in vivo, broilers (male Cobb×Cobb chicks)
# [5] = system: E. maxima and C. perfringens; type: in vivo, broilers (male Cobb×Cobb chicks); remark: listed apart in the source
# [6] = system: E. maxima and C. perfringens; type: in vivo, broilers (male Cobb×Cobb chicks); remark: listed apart in the source
# [7] = system: E. maxima and C. perfringens; type: in vivo, broilers (male Cobb×Cobb chicks); remark: listed apart in the source
# [8] = system: Clostridium perfringens strain #6 (with coccidia / E. maxima); type: in vivo, broilers (male Ross×Ross chicks)
# [9] = 0-21 d, challenged, BMD 50.0 g/ton, combination 0.30 lb/ton + 0.5 lb/ton + 3 × 10^5 cfu/g
# [10] = 0-28 d, challenged, BMD 50.0 g/ton, combination 0.30 lb/ton + 0.5 lb/ton + 3 × 10^5 cfu/g
# [11] = 14-21 d, challenged, BMD 50.0 g/ton, combination 0.30 lb/ton + 0.5 lb/ton + 3 × 10^5 cfu/g
# [12] = 14-28 d, challenged, BMD 50.0 g/ton, combination 0.30 lb/ton + 0.5 lb/ton + 3 × 10^5 cfu/g
# [13] = 0-21 d, challenged, BMD 50.0 g/ton, combination 4.0 lb/ton + 3 × 10^5 cfu/g
# [14] = 0-28 d, challenged, BMD 50.0 g/ton, combination 4.0 lb/ton + 3 × 10^5 cfu/g
# [15] = 14-21 d, challenged, BMD 50.0 g/ton, combination 4.0 lb/ton + 3 × 10^5 cfu/g
# [16] = 14-28 d, challenged, BMD 50.0 g/ton, combination 4.0 lb/ton + 3 × 10^5 cfu/g
# [17] = 0-21 d, challenged, BMD 50.0 g/ton, combination 0.3 lb/ton + 3 × 10^5 cfu/g
# [18] = 0-28 d, challenged, BMD 50.0 g/ton, combination 0.3 lb/ton + 3 × 10^5 cfu/g
# [19] = 14-21 d, challenged, BMD 50.0 g/ton, combination 0.3 lb/ton + 3 × 10^5 cfu/g
# [20] = 14-28 d, challenged, BMD 50.0 g/ton, combination 0.3 lb/ton + 3 × 10^5 cfu/g
# [21] = 0-21 d, challenged, BMD 50.0 g/ton, combination 0.5 lb/ton + 3 × 10^5 cfu/g
# [22] = 0-28 d, challenged, BMD 50.0 g/ton, combination 0.5 lb/ton + 3 × 10^5 cfu/g
# [23] = 14-21 d, challenged, BMD 50.0 g/ton, combination 0.5 lb/ton + 3 × 10^5 cfu/g
# [24] = 14-28 d, challenged, BMD 50.0 g/ton, combination 0.5 lb/ton + 3 × 10^5 cfu/g
substance,measurement,setting,value
Virginiamycin,Body weight gain,C. perfringens [1]; 15 d,0.38 kg
same,Feed Conversion,C. perfringens [1]; 15 d,1.32^xy
same,Feed consumption,C. perfringens [1]; 15 d,0.44^ab Kg
same,Body weight gain,C. perfringens [1]; 35 d,1.57^xy Kg
same,Feed Conversion,C. perfringens [1]; 35 d,1.73
same,Feed consumption,C. perfringens [1]; 35 d,2.62 kg
same,Body weight gain,C. perfringens [1]; 42 d,2.17 kg
same,Feed Conversion,C. perfringens [1]; 42 d,1.76
same,Feed consumption,C. perfringens [1]; 42 d,3.70 kg
same,"Necrotic enteritis related mortality, %",C. perfringens [1],3.50%
same,Total Mortality %,C. perfringens [1],0.50%
same,Total Mortality %,C. perfringens [2],5.36%
same,Body weight gain,C. perfringens [2]; 15 d,0.33 kg
same,Feed Conversion,C. perfringens [2]; 15 d,1.33^b
same,Feed consumption,C. perfringens [2]; 15 d,0.39 kg
same,Body weight gain,C. perfringens [2]; 35 d,1.10^ab Kg
same,Feed Conversion,C. perfringens [2]; 35 d,1.62^abc
same,Feed consumption,C. perfringens [2]; 35 d,1.73^x Kg
same,Body weight gain,C. perfringens [2]; 42 d,2.27 kg
same,Feed Conversion,C. perfringens [2]; 42 d,1.74^abc
same,Feed consumption,C. perfringens [2]; 42 d,3.90^xy Kg
bacitracin methylene disalycilate [BMD],Body weight gain,[3]; 0-21 d,0.44 kg
same,Feed Conversion,[3]; 0-21 d,1.79^ab
same,Feed consumption,[3]; 0-21 d,0.79 kg
same,Body weight gain,[3]; 0-28 d,0.65 kg
same,Feed Conversion,[3]; 0-28 d,1.88^b
same,Feed consumption,[3]; 0-28 d,1.22 kg
same,Body weight gain,[3]; 14-21 d,0.16^b Kg
same,Feed Conversion,[3]; 14-21 d,2.56^b
same,Feed consumption,[3]; 14-21 d,0.41 kg
same,Body weight gain,[3]; 14-28 d,0.37^ab Kg
same,Feed Conversion,[3]; 14-28 d,2.58^b
same,Feed consumption,[3]; 14-28 d,0.95 kg
same,Necrotic enteritis lesion score,"[3]; DOT 21, 0 to 3 score, 0 normal, 3 most severe",1.1^b
same,"Necrotic enteritis related mortality, %",[3],28.1^b %
same,Body weight gain,[4]; [9],0.52^ab Kg
same,Feed Conversion,[4]; [9],1.81^a
same,Feed consumption,[4]; [9],0.94 kg
same,Body weight gain,[4]; [10],0.77 kg
same,Feed Conversion,[4]; [10],1.78^b
same,Feed consumption,[4]; [10],1.37 kg
same,Body weight gain,[4]; [11],0.28^b Kg
same,Feed Conversion,[4]; [11],1.77^b
same,Feed consumption,[4]; [11],0.49 kg
same,Body weight gain,[4]; [12],0.53 kg
same,Feed Conversion,[4]; [12],1.73^bc
same,Feed consumption,[4]; [12],0.91 kg
same,Necrotic enteritis lesion score,"[4]; DOT 21, 0 to 3 score, challenged, BMD 50.0 g/ton, combination 0.30 lb/ton + 0.5 lb/ton + 3 × 10^5 cfu/g",0.5^b
same,Necrotic enteritis lesion scores compared to the challenged control birds,[4]; P<0.05,lower
same,Overall FCR compared to the challenged no feed additive control,[4]; P<0.05,reduced
same,necrotic enteritis related mortality compared to the challenged control birds,[4]; P<0.05,lower
same,"Necrotic enteritis related mortality, %","[4]; challenged, BMD 50.0 g/ton, combination 0.30 lb/ton + 0.5 lb/ton + 3 × 10^5 cfu/g",2^b %
same,FCR compared to the challenge control birds,"[4]; d 14-28, P<0.05",decreased
same,Body weight gain compared to the challenged no feed additive control group,[4]; in vivo,not impacted
same,controlling C. perfringens disease challenge,[4]; in vivo,effective
same,Body weight gain,[5]; [13],0.57^a Kg
same,Feed Conversion,[5]; [13],1.53^c
same,Feed consumption,[5]; [13],0.87 kg
same,Body weight gain,[5]; [14],0.81^a Kg
same,Feed Conversion,[5]; [14],1.60^b
same,Feed consumption,[5]; [14],1.30 kg
same,Body weight gain,[5]; [15],0.32^ab Kg
same,Feed Conversion,[5]; [15],1.72^b
same,Feed consumption,[5]; [15],0.55 kg
same,Body weight gain,[5]; [16],0.56^a Kg
same,Feed Conversion,[5]; [16],1.75^b
same,Feed consumption,[5]; [16],0.98^a Kg
same,Necrotic enteritis lesion score,"[5]; DOT 21, 0 to 3 score, challenged, BMD 50.0 g/ton, combination 4.0 lb/ton + 3 × 10^5 cfu/g",0.79^b
same,Necrotic enteritis lesion score compared to the challenged control birds,[5]; P<0.05,lower
same,"Necrotic enteritis related mortality, %","[5]; challenged, BMD 50.0 g/ton, combination 4.0 lb/ton + 3 × 10^5 cfu/g",0.0^b %
same,overall FCR compared to the challenged control birds,[5]; d 0-28,reduced
same,overall body weight gain compared to the challenged control birds,[5]; d 0-28,increased
same,FCR compared to the challenge control birds,"[5]; d 14-28, P<0.05",decreased
same,body weight gain compared to the challenge control birds,"[5]; d 14-28, P<0.05",increased
same,controlling C. perfringens disease challenge,[5]; in vivo,effective
same,necrotic enteritis mortality compared to the challenged control group,[5]; in vivo,lower
same,Body weight gain,[6]; [17],0.66^a Kg
same,Feed Conversion,[6]; [17],1.62^ab
same,Feed consumption,[6]; [17],1.07 kg
same,Body weight gain,[6]; [18],0.92^ab Kg
same,Feed Conversion,[6]; [18],1.67^a
same,Feed consumption,[6]; [18],1.54 kg
same,Body weight gain,[6]; [19],0.30^b Kg
same,Feed Conversion,[6]; [19],1.95^b
same,Feed consumption,[6]; [19],0.58 kg
same,Body weight gain,[6]; [20],0.56^ab Kg
same,Feed Conversion,[6]; [20],1.93^b
same,Feed consumption,[6]; [20],1.08 kg
same,Necrotic enteritis lesion score,"[6]; DOT 21, 0 to 3 score, challenged, BMD 50.0 g/ton, combination 0.3 lb/ton + 3 × 10^5 cfu/g",0.50^b
same,Necrotic enteritis lesion score compared to the challenged control birds,[6]; P<0.05,lower
same,"Necrotic enteritis related mortality, %","[6]; challenged, BMD 50.0 g/ton, combination 0.3 lb/ton + 3 × 10^5 cfu/g",0.0%
same,overall body weight gain compared to the challenged control,[6]; d 0-28,increased
same,FCR compared to the challenge control birds,"[6]; d 14-28, P<0.05",decreased
same,body weight gain compared to the challenge control birds,"[6]; d 14-28, P<0.05",increased
same,controlling C. perfringens disease challenge,[6]; in vivo,effective
same,Body weight gain,[7]; [21],0.34^a Kg
same,Feed Conversion,[7]; [21],2.21^b
same,Feed consumption,[7]; [21],0.75 kg
same,Body weight gain,[7]; [22],0.57 kg
same,Feed Conversion,[7]; [22],2.08^b
same,Feed consumption,[7]; [22],1.19 kg
same,Body weight gain,[7]; [23],0.15^bc Kg
same,Feed Conversion,[7]; [23],2.30^b
same,Feed consumption,[7]; [23],0.34 kg
same,Body weight gain,[7]; [24],0.38^ab Kg
same,Feed Conversion,[7]; [24],2.05^b
same,Feed consumption,[7]; [24],0.78 kg
same,Necrotic enteritis lesion score,"[7]; DOT 21, 0 to 3 score, challenged, BMD 50.0 g/ton, combination 0.5 lb/ton + 3 × 10^5 cfu/g",0.3^c
same,Necrotic enteritis lesion score compared to the challenged control birds,[7]; P<0.05,lower
same,necrotic enteritis mortality compared to the challenged control group,[7]; P<0.05,decreased
same,"Necrotic enteritis related mortality, %","[7]; challenged, BMD 50.0 g/ton, combination 0.5 lb/ton + 3 × 10^5 cfu/g",3^b %
same,overall FCR compared to the challenged control birds,"[7]; d 0-28, P<0.05",decreased
same,body weight gain compared to the challenge control birds,[7]; d 14-28,similar
same,FCR compared to the challenge control birds,"[7]; d 14-28, P<0.05",decreased
same,controlling C. perfringens disease challenge,[7]; in vivo,effective
same,FCR compared to birds fed with no feed additive,"[8]; 28 days of age, P<0.05",decreased
same,body weight gain compared to birds fed with no feed additive,"[8]; 28 days of age, P<0.05",increased
same,Body weight gain compared to the control fed birds,"[8]; 41 days of age, P<0.05",increased
same,FCR compared to the no feed additive control group,"[8]; 41 days of age, P<0.05",decreased
same,Necrotic enteritis lesion score compared to the no feed additive control fed birds,[8]; in vivo,numerically reduced
same,controlling C. perfringens disease challenge,[8]; in vivo,effective
same,necrotic enteritis related mortality compared to the no feed additive control fed birds,[8]; in vivo,numerically reduced
